ChEMBL document CHEMBL1909046, “DrugMatrix in vitro pharmacology data”

How the values were obtained:
[1] = target: T1, C-X-C chemokine receptor type 2 (Homo sapiens, UniProt P25025); format: cell membranes, Membrane; details: cho-k1; further: in other assays of this panel Not Active means under 50% inhibition at 10 µM
T1 sequence (P25025 whole entry): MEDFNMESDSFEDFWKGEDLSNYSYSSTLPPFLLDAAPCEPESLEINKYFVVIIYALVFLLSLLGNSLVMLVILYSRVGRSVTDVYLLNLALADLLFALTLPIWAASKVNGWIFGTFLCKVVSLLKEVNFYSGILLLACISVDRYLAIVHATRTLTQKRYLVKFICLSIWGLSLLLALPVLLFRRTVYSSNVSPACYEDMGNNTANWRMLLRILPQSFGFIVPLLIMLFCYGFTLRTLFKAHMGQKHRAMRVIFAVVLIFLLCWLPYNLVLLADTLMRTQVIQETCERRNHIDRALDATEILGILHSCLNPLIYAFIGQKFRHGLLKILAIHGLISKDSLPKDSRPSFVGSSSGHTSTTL

B2 bradykinin receptor = target: T2, B2 bradykinin receptor (Homo sapiens, UniProt P30411); format: cell membranes, Membrane; details: chem-1; further: in other assays of this panel Not Active means under 50% inhibition at 10 µM
T2 sequence (P30411 whole entry): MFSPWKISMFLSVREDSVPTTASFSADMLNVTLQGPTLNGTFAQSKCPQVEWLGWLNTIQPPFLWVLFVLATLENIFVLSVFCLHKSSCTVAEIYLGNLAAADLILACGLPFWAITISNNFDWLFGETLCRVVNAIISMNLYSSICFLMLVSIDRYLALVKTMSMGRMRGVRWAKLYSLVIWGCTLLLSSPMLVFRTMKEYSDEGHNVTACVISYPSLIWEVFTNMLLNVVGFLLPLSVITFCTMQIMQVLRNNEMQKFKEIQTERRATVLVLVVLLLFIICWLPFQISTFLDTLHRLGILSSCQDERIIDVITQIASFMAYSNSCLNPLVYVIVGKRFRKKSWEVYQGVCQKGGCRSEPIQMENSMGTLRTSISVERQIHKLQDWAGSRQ

[2] = target: Sodium-dependent noradrenaline transporter (Homo sapiens, UniProt P23975); assay: DRUGMATRIX: Norepinephrine Transporter radioligand binding (ligand: [125I] RTI-55); format: cell membranes, MDCK, Membrane; details: Not Active = under 50% inhibition at 10 µM; for Ki: read-out: Ki
Chain of Sodium-dependent noradrenaline transporter (P23975 whole entry): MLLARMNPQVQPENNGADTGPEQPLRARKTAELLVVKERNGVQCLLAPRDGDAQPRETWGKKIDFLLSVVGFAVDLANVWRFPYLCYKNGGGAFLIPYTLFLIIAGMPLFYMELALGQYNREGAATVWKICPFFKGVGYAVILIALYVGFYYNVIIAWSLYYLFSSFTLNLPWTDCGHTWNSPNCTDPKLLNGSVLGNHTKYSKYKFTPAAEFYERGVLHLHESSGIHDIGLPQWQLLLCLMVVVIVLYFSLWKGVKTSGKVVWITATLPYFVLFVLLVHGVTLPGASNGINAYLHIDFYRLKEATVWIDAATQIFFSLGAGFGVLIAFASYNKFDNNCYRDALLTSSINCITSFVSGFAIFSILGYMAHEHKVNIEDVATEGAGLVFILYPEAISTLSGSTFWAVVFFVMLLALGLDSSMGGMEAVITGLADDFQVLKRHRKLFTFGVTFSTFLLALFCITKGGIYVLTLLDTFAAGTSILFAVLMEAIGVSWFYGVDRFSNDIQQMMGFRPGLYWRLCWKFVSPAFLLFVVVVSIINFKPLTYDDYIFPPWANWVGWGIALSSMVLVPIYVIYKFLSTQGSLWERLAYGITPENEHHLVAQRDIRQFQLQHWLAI

[3] = DRUGMATRIX: Glutamate, Kainate radioligand binding (ligand: [3H] Kainic acid); format: cell membranes, Rattus norvegicus, Wistar, Brain, Membrane; details: Not Active = under 50% inhibition at 10 µM
[4] = DRUGMATRIX: Purinergic P2X radioligand binding (ligand: [3H] alpha, beta-Methylene-ATP); format: cell membranes, Oryctolagus cuniculus, New Zealand albino, Urinary bladder, Membrane; details: Not Active = under 50% inhibition at 10 µM
Estrogen receptor = target: T3, Estrogen receptor (Homo sapiens, UniProt P03372); details: sf9; further: in other assays of this panel Not Active means under 50% inhibition at 10 µM
T3 sequence (P03372 whole entry): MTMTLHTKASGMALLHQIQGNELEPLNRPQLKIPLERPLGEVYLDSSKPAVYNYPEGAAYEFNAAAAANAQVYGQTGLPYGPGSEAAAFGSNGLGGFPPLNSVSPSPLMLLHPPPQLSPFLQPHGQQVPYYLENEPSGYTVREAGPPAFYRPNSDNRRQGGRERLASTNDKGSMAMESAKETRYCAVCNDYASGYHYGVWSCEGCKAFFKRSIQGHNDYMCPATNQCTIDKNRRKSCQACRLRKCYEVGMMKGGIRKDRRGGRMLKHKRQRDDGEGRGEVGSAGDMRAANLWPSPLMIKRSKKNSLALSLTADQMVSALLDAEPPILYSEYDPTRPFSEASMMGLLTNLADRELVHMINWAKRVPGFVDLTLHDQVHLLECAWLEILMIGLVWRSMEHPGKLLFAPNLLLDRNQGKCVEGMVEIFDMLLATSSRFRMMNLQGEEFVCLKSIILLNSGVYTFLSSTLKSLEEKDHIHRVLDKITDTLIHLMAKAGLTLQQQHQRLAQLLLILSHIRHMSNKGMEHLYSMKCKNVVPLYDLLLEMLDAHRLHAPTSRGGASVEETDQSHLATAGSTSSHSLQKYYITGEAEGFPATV

[5] = target: Prostaglandin G/H synthase 1 (Homo sapiens, UniProt P23219); assay: biochemical; format: tissue-based, Platelet;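 further: inhibition of COX-1 enzyme activity, with arachidonic acid supplied as substrate; in other assays of this panel Not Active means under 50% inhibition at 10 µM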
Chain of Prostaglandin G/H synthase 1 (P23219 whole entry): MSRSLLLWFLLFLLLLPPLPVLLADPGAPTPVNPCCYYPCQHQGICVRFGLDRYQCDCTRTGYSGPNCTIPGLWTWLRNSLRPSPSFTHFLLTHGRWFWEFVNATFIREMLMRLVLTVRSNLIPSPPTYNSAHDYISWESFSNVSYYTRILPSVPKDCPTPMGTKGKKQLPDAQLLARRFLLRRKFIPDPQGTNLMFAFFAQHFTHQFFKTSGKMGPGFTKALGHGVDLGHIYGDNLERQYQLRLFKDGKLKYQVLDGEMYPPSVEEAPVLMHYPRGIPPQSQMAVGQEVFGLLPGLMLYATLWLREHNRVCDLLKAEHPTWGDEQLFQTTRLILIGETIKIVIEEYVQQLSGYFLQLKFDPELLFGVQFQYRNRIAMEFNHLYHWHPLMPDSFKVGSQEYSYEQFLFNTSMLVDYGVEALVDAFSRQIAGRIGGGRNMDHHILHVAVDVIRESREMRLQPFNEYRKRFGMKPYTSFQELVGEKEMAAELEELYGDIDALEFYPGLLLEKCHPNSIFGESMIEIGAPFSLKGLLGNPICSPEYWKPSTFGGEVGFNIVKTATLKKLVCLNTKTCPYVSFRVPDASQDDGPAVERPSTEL

[6] = target: Kappa-type opioid receptor (Homo sapiens, UniProt P41145); assay: DRUGMATRIX: Opiate kappa (OP2, KOP) radioligand binding (ligand: [3H] Diprenorphine); format: cell membranes, HEK293, Membrane; details: hek293; Not Active = under 50% inhibition at 10 µM
Chain of Kappa-type opioid receptor (P41145 whole entry): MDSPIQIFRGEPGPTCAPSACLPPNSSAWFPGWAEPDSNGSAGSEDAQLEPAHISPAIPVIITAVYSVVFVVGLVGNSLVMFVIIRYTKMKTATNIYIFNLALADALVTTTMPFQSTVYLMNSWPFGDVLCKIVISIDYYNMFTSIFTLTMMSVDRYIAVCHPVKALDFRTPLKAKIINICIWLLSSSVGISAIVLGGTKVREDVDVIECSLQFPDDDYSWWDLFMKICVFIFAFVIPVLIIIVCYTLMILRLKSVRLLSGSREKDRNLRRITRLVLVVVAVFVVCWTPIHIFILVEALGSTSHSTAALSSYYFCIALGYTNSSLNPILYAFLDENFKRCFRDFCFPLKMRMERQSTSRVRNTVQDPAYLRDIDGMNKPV

Row | Compound | IC50 [1] | IC50 (B2 bradykinin receptor) | IC50 ([2]; read-out: IC50) [nM] | Ki [2] [nM] | IC50 [3] | Ki [3] | IC50 [4] | Ki [4] | IC50 (Estrogen receptor) | IC50 ([5]; platelet) | IC50 [6] | IC50 ([2]; mdck) | IC50 ([5]; read-out: IC50) [nM]
1 | O=c1ncn2nc(Sc3ccc(F)cc3F)ccc2c1-c1c(Cl)cccc1Cl [NEFLAMAPIMOD] | Not Active | Not Active | 20400 | 20200 | Not Active | Not Active | Not Active | Not Active | Not Active | Not Active | Not Active | – | –
2 | Nc1nc2ccc(OC(F)(F)F)cc2s1 [RILUZOLE] | Not Active | Not Active | 1730 | 1720 | Not Active | Not Active | Not Active | Not Active | Not Active | Not Active | Not Active | – | –
3 | C=CCC1(C(C)CCC)C(=O)NC(=O)NC1=O (stereo not drawn) [SECOBARBITAL] | Not Active | Not Active | – | – | Not Active | Not Active | Not Active | Not Active | Not Active | Not Active | Not Active | Not Active | –
4 | C[C@@H]1CN(c2c(F)c(N)c3c(=O)c(C(=O)O)cn(C4CC4)c3c2F)C[C@H](C)N1 [SPARFLOXACIN] | Not Active | Not Active | – | – | Not Active | Not Active | Not Active | Not Active | Not Active | Not Active | Not Active | Not Active | –
5 | Cc1noc(NS(=O)(=O)c2ccc(N)cc2)c1C [SULFISOXAZOLE] | Not Active | Not Active | – | – | Not Active | Not Active | Not Active | Not Active | Not Active | Not Active | Not Active | Not Active | –
6 | Nc1c2c(nc3ccccc13)CCCC2 [TACRINE] | Not Active | Not Active | 517 | 513 | Not Active | Not Active | Not Active | Not Active | Not Active | Not Active | Not Active | – | –
7 | Nc1nc2nc[nH]c2c(=S)[nH]1 [THIOGUANINE] | Not Active | Not Active | – | – | Not Active | Not Active | Not Active | Not Active | Not Active | – | Not Active | Not Active | 601
8 | Cc1cccc(N(C)C(=S)Oc2ccc3ccccc3c2)c1 [TOLNAFTATE] | Not Active | Not Active | – | – | Not Active | Not Active | Not Active | Not Active | Not Active | Not Active | Not Active | Not Active | –
9 | NC[C@H]1CC[C@H](C(=O)O)CC1 [TRANEXAMIC ACID] | Not Active | Not Active | – | – | Not Active | Not Active | Not Active | Not Active | Not Active | Not Active | Not Active | Not Active | –
10 | Cc1c(C)c2c(c(C)c1O)CCC(C)(COc1ccc(CC3SC(=O)NC3=O)cc1)O2 (stereo not drawn) [TROGLITAZONE] | Not Active | Not Active | – | – | Not Active | Not Active | Not Active | Not Active | Not Active | Not Active | Not Active | Not Active | –
11 | N[C@@H]1[C@H]2CN(c3nc4c(cc3F)c(=O)c(C(=O)O)cn4-c3ccc(F)cc3F)C[C@@H]12 [TROVAFLOXACIN] | Not Active | Not Active | – | – | Not Active | Not Active | Not Active | Not Active | Not Active | Not Active | Not Active | Not Active | –
12 | N#CC(C#N)=Cc1ccc(O)c(O)c1 [TYRPHOSTIN 23] | Not Active | Not Active | – | – | Not Active | Not Active | Not Active | Not Active | Not Active | Not Active | Not Active | Not Active | –
13 | CC[C@]1(O)C[C@H]2CN(CCc3c([nH]c4ccccc34)[C@@](C(=O)OC)(c3cc4c(cc3OC)N(C=O)[C@H]3[C@@](O)(C(=O)OC)[C@H](OC(C)=O)[C@]5(CC)C=CCN6CC[C@]43[C@@H]65)C2)C1 [VINCRISTINE] | Not Active | Not Active | – | – | Not Active | Not Active | Not Active | Not Active | Not Active | Not Active | Not Active | Not Active | –
14 | CCCOc1ccccc1-c1nc2nn[nH]c2c(=O)[nH]1 [ZAPRINAST] | Not Active | Not Active | – | – | Not Active | Not Active | Not Active | Not Active | Not Active | Not Active | Not Active | Not Active | –
